Test results reported in US5332726A, “Antithrombotic peptides and pseudopeptides” (Rhone-Poulenc Rorer Pharmaceuticals Inc., priority 1992, dated 1994).
pIC50: −log10 of the molar value.

Legend:
platelet aggregation = conditions: cited from earlier work
[1] = biological target: fixed activated platelets (Homo sapiens, UniProt P05106+P08514); test: Platelet Aggregation Assay (fibrinogen-mediated aggregation of fixed-activated platelets); type: cell-based; conditions: for pIC50: fixed activated platelets, human fibrinogen 250 μg/ml, read-out: Inhibition of Fibrinogen Mediated Platelet Aggregation IC50; for inhibition at 25 µM: read-out: Inhibition of Fibrinogen Mediated Platelet Aggregation % inhibition at 25 μM
Summary of the method: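 Activated platelets fixed with 0.50% paraformaldehyde for 30 min at room temperature. They were then pre-incubated 1 min with test compound before aggregation was triggered by human fibrinogen at 250 μg/ml final. Aggregation recorded on an aggregometer.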

[2] = biological target: thrombin-stimulated platelets (Homo sapiens, UniProt P05106+P08514); test: Fibrinogen-Binding Assay (125I-fibrinogen binding to platelets); conditions: 125I-fibrinogen 0.176 μmol/liter, thrombin-stimulated platelets; read-out: Inhibition of 125I-Fibrinogen Binding to Platelets IC50
thrombin-stimulated platelets, sequence (P08514 32-1039): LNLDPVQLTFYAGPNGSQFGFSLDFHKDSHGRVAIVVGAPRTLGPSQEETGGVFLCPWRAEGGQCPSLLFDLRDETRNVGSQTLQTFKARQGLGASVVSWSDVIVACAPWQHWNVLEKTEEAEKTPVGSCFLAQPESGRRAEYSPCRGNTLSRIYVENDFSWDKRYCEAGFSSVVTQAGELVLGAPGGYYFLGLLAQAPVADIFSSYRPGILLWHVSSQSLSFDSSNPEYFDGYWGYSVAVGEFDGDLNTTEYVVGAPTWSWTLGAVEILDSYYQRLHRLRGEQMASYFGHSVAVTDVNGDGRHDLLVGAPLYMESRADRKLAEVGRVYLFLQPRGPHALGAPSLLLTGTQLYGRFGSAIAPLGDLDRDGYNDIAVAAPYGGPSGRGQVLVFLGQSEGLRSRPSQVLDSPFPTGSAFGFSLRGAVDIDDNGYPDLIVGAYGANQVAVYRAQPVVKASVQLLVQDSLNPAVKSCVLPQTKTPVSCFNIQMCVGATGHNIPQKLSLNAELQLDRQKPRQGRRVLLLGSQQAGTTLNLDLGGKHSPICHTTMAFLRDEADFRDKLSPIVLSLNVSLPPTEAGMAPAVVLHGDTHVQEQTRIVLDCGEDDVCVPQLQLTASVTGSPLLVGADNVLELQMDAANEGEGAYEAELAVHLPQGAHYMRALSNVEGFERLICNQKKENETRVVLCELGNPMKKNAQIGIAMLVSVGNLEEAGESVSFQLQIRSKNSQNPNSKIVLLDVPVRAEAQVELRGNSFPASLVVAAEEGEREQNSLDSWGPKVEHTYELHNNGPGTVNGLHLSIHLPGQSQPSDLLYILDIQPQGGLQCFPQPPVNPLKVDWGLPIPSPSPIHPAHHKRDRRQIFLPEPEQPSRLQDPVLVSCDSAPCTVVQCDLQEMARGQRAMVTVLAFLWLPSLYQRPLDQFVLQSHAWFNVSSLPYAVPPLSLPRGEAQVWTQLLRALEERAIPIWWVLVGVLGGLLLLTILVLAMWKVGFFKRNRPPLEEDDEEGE
thrombin-stimulated platelets, sequence (P05106 27-788): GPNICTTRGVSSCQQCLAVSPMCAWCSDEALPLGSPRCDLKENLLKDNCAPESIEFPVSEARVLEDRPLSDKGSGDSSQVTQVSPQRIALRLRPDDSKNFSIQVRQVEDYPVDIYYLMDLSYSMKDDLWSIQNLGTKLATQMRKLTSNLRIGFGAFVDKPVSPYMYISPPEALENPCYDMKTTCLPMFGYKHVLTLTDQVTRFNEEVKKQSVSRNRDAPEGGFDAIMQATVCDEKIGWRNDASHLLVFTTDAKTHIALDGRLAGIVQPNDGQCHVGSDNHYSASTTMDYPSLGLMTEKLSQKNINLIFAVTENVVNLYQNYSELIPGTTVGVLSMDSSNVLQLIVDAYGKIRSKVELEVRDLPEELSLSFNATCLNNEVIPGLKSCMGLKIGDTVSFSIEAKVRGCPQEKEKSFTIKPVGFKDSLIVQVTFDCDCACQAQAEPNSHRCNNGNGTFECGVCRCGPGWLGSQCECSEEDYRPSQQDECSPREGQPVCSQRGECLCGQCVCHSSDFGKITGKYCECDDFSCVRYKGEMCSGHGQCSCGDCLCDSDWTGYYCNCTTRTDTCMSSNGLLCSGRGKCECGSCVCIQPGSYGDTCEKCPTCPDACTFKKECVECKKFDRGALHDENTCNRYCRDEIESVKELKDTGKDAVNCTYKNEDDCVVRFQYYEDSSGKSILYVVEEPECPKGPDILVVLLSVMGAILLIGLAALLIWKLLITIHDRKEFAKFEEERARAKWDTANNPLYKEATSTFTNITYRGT

fixed activated platelets, sequence (P08514 32-1039): as the sequence (P08514 32-1039) above
fixed activated platelets, sequence (P05106 27-788): as the sequence (P05106 27-788) above

In the case of arg-gly-asp-ser, the “inhibiting thrombin-induced platelet aggregation” value (platelet aggregation) is given as “capable of inhibiting thrombin-induced platelet aggregation”.

For gly-arg-gly-asp-ser, the “inhibiting thrombin-induced platelet aggregation” value (platelet aggregation) is given as “capable of inhibiting thrombin-induced platelet aggregation”.

Work on N=C(N)NCCCCCCCCC(=O)N[C@@H](CC(=O)O)C(=O)N[C@@H](Cc1ccccc1)C(=O)N[C@@H](CCCNC(=N)N)C(=O)O [9-Guanidinononanoyl-L-aspartyl-L-phenylalanine-L-arginine] yielded a pIC50 [1] of 6.49, an inhibition at 25 µM [1] of 98% and a pIC50 [2] of 5.22.

CC(C)COC(=O)[C@H](CCCNC(=N)N)NC(=O)[C@H](CC(=O)O)NC(=O)CCCCCCCCNC(=N)N [9-guanidinononanoyl-L-aspartyl-L-arginine isobutyl ester] showed a pIC50 [1] of 6.27, an inhibition at 25 µM [1] of 97% and a pIC50 [2] of 6.20.

CC(C)[C@H](NC(=O)[C@H](CC(=O)O)NC(=O)CN(C)C(=O)CCCCCCNC(=N)N)C(=O)O [7-Guanidinoheptanoyl-L-sarcosyl-L-aspartyl-L-valine] gave an inhibition at 25 µM [1] of 14% and a pIC50 [2] of 5.29.

Compound CC[C@H](C)[C@H](NC(=O)CNC(=O)[C@H](CC(=O)O)NC(=O)CCCCCCCCNC(=N)N)C(=O)O [9-Guanidinononanoyl-L-aspartyl-glycyl-L-isoleucine] has a pIC50 [1] of 4.60, an inhibition at 25 µM [1] of 54% and a pIC50 [2] of 4.40.

Compound N=C(N)NCCCCC(=O)NCC(=O)N[C@@H](CC(=O)O)C(=O)NCCc1ccccc1 [N-(5-guanidinopentanoyl)glycyl-L-aspartylphenethylamide] has a pIC50 [1] of 5.68, an inhibition at 100 µM ([1]; read-out: Inhibition of Fibrinogen Mediated Platelet Aggregation % inhibition at 100 μM) of 86% and a pIC50 [2] of 4.70.

For CCC(CC)(NC(=O)[C@H](CC(=O)O)NC(=O)CCCCCCCCNC(=N)N)C(=O)N[C@@H](CCCNC(=N)N)C(=O)O [9-Guanidinononanoyl-L-aspartyl-α,α-diethyl-glycyl-L-arginine], the pIC50 [1] was less than 4.60, the inhibition at 25 µM [1] was 20% and the pIC50 [2] was 4.40.
